Assay results taken from ChEMBL document CHEMBL3124747, “Formosusin A, a novel specific inhibitor of mammalian DNA polymerase β from the fungus Paecilomyces formosus” (Bioorg Med Chem, 2014).

Key:
T7 RNA polymerase = T7 RNA polymerase (Enterobacteria phage T7, UniProt P00573); assay: Inhibition of T7 RNA polymerase assessed as inhibition of incorporation of dTTP into poly(dA)/oligo(dT)18 after 60 mins; set-up: species or system Escherichia phage T7
[1] = target: Human immunodeficiency virus type 1 reverse transcriptase (Human immunodeficiency virus 1, UniProt Q72547); assay: Inhibition of HIV-1 reverse transcriptase assessed as inhibition of incorporation of dTTP into poly(rA)/oligo(dT)18 after 60 mins
[2] = target: T1, DNA-directed DNA polymerase (Enterobacteria phage T4, UniProt P04415); assay: Inhibition of T4 bacteriophage DNA polymerase assessed as inhibition of incorporation of dTTP into poly(dA)/oligo(dT)18 after 60 mins; set-up: species or system Tequatrovirus T4
T1 sequence (P04415 whole entry): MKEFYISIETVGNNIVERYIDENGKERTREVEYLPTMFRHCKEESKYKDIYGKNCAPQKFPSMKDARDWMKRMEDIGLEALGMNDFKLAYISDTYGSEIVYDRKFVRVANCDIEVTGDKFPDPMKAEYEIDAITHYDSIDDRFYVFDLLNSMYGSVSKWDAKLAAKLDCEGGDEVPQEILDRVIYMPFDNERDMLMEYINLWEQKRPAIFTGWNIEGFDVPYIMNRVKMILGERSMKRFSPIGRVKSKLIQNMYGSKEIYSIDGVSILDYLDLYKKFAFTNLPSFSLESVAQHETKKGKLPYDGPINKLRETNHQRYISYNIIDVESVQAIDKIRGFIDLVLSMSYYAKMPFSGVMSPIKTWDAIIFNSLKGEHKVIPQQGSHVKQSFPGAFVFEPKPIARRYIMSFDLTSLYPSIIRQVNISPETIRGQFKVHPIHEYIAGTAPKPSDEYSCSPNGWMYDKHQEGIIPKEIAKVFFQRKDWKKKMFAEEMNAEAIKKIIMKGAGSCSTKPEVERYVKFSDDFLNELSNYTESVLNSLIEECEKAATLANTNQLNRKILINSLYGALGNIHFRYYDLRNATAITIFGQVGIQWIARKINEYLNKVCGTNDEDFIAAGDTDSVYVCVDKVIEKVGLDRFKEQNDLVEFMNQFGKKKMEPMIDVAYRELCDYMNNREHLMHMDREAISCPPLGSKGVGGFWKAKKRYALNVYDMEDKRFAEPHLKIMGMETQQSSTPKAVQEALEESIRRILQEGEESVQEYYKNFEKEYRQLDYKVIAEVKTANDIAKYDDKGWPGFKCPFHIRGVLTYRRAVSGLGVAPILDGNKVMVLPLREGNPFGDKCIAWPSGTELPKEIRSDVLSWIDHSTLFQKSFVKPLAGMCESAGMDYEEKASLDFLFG

[3] = Inhibition of Thermus aquaticus DNA polymerase assessed as inhibition of incorporation of dTTP into poly(dA)/oligo(dT)18 after 60 mins
[4] = target: DNA nucleotidylexotransferase (Bos taurus, UniProt P06526); assay: Inhibition of calf thymus TdT assessed as inhibition of incorporation of dTTP into oligo(dT)18(3'OH) after 60 mins
Sequence of DNA nucleotidylexotransferase (P06526 whole entry): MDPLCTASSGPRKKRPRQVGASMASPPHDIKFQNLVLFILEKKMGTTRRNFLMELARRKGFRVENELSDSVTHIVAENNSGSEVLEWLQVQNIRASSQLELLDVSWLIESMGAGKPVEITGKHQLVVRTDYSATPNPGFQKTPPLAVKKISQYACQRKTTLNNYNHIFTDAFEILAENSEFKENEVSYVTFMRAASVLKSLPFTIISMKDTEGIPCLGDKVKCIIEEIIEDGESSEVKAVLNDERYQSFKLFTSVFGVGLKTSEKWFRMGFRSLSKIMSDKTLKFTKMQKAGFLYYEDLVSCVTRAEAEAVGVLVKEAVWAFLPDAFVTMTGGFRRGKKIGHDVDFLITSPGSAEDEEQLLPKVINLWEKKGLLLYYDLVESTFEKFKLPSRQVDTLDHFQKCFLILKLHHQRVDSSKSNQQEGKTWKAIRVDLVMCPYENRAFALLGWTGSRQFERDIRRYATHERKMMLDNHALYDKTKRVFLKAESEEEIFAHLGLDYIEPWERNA

[5] = target: DNA-directed DNA/RNA polymerase mu (Homo sapiens, UniProt Q9NP87); assay: Inhibition of human His-tagged recombinant DNA polymerase mu expressed in Escherichia coli BL21 assessed as inhibition of incorporation of dTTP into poly(dA)/oligo(dT)18 after 60 mins
Sequence of DNA-directed DNA/RNA polymerase mu (Q9NP87 whole entry): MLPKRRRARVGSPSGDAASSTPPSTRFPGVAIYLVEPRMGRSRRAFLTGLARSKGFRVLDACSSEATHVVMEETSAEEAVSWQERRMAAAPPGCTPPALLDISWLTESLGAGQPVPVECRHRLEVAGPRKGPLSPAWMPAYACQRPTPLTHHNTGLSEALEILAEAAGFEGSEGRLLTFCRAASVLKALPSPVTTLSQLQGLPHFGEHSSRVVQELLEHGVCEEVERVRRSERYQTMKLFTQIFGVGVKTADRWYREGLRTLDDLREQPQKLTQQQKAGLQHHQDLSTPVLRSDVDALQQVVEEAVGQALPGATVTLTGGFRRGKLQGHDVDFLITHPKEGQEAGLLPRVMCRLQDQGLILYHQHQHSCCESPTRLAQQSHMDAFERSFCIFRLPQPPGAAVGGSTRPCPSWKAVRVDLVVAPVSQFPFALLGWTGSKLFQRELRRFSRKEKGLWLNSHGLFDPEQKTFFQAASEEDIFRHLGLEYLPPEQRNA

DNA polymerase beta = DNA polymerase beta (Rattus norvegicus, UniProt P06766); assay: Inhibition of recombinant rat DNA polymerase beta expressed in Escherichia coli JMpbeta5 assessed as inhibition of incorporation of dTTP into poly(dA)/oligo(dT)18 after 60 mins
[6] = target: T2, DNA polymerase delta catalytic subunit (Homo sapiens, UniProt P28340); assay: Inhibition of DNA polymerase delta isolated from human MOLT4 cells assessed as inhibition of incorporation of dTTP into poly(dA)/oligo(dT)18 after 60 mins; type: cell-free, MOLT-4
T2 sequence (P28340 whole entry): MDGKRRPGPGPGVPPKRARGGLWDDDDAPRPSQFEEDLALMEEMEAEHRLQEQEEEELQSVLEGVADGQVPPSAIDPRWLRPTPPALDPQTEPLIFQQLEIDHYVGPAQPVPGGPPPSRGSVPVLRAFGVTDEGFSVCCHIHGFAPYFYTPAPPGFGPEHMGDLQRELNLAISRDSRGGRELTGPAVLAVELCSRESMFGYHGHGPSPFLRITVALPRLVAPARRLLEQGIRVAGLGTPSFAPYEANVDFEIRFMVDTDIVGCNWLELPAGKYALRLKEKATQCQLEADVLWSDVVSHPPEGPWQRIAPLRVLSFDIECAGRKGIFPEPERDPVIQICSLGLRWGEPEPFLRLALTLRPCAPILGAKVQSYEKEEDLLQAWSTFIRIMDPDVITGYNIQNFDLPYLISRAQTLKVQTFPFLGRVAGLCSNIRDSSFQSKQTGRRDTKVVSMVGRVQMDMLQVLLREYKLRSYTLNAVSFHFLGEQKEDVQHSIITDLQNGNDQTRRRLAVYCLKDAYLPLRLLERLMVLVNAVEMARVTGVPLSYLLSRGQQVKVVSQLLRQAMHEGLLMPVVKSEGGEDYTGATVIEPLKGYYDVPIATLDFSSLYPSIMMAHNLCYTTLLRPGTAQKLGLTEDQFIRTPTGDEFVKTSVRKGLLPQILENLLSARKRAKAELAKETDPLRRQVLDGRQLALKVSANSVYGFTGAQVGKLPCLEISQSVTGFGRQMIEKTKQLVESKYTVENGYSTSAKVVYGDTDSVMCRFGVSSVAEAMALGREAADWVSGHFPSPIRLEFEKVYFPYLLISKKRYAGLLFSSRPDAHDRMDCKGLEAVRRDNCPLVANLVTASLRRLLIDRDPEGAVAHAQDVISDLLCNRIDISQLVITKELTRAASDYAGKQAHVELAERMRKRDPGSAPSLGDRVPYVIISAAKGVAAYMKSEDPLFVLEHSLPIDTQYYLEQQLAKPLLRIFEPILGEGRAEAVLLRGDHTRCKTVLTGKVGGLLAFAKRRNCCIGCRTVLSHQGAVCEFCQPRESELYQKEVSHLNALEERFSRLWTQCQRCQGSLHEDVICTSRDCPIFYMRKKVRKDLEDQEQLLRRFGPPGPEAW

[7] = Inhibition of calf thymus DNA polymerase alpha assessed as inhibition of incorporation of dTTP into poly(dA)/oligo(dT)18 after 60 mins; set-up: species or system Bos taurus

Sequence of T7 RNA polymerase (P00573 whole entry): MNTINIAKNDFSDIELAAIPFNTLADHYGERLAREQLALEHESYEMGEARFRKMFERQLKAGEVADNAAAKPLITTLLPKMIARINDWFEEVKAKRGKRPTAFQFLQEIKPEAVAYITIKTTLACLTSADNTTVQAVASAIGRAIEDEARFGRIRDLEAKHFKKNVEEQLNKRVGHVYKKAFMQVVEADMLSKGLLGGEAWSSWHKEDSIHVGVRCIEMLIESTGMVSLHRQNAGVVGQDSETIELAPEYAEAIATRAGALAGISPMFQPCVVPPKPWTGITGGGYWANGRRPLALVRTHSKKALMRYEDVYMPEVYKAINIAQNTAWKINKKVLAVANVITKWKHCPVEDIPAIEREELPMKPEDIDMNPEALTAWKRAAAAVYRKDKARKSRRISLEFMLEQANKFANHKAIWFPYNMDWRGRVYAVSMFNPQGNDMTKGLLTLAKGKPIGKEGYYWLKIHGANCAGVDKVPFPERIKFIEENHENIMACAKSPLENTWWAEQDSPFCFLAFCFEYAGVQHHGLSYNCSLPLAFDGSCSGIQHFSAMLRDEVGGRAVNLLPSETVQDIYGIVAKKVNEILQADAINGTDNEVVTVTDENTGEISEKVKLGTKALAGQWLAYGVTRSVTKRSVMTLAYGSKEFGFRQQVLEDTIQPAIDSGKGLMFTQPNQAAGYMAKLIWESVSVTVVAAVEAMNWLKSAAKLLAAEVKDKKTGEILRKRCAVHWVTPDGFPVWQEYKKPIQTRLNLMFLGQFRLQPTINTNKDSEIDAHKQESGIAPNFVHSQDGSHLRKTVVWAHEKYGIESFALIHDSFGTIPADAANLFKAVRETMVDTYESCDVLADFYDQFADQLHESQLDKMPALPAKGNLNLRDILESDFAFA

| SMILES | IC50 (T7 RNA polymerase) [µM] | IC50 [1] [µM] | IC50 [2] [µM] | IC50 [3] [µM] | IC50 [4] [µM] | IC50 [5] [µM] | IC50 (DNA polymerase beta) [µM] | IC50 [6] [µM] | IC50 [7] [µM] |
| --- | --- | --- | --- | --- | --- | --- | --- | --- | --- |
| CCCCC(=O)/C=C(C)/C=C/CCC(=O)N1CCCC1=O | > 200 | > 200 | > 200 | > 200 | > 200 | > 200 | > 200 | > 200 | > 200 |
| CCCC[C@@H](O)/C=C(C)/C=C/C=C/C(=O)N1CCCC1=O [PECILOCIN] | > 200 | > 200 | > 200 | > 200 | > 200 | > 200 | > 200 | > 200 | > 200 |
| CCCC[C@@H](O)/C=C(C)/C=C/C=C\C(=O)N1CCCC1=O | > 200 | > 200 | > 200 | > 200 | > 200 | > 200 | 35.6 | > 200 | > 200 |
| CC(/C=C/CCC(=O)N1CCCC1=O)=C\C1CCCCO1 (stereo unspecified) | > 200 | > 200 | > 200 | > 200 | > 200 | > 200 | > 200 | > 200 | > 200 |
